Results published in patent US7217810B2, “High level production of arbutin in green plants and microbes” (E. I. du Pont de Nemours and Company, priority 2003, dated 2007).

Experiments:
UGT72B1 [1] = biological target: T1, UGT72B1 (Arabidopsis thaliana, UniProt Q9M156); settings: highest of the benzoic acid derivatives analyzed; cited from earlier work
T1 construct: host or cells: E. coli (per the cited work)
T1 sequence (Q9M156 1-480): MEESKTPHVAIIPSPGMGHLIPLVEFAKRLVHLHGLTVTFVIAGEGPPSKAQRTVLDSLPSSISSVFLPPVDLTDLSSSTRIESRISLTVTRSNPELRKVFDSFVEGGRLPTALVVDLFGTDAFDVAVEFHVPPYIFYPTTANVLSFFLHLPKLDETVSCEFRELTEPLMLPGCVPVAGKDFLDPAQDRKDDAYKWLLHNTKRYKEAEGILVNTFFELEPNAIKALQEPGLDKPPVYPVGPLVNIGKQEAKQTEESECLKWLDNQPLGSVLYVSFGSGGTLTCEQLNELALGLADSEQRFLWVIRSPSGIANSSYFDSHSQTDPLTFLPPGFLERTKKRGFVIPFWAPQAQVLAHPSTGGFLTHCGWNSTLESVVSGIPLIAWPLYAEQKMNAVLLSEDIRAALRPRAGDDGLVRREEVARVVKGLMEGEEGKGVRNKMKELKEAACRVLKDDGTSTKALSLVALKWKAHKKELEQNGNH

arbutin synthase [2] = biological target: T2, arbutin synthase (Rauvolfia serpentina, UniProt Q9AR73); settings: 50° C., converted from cited Vmax using 51,793.01 Da
Procedure: (§1) This turnover number was calculated using a molecular weight of the UGT72B1 enzyme of 53,015.33 Da calculated with the PEPIDESORT software package of the GCG.

UGT72B1 [3] = biological target: UGT72B1 (Arabidopsis thaliana, UniProt Q9M156, E284K/I310V/T253S)
Procedure: The enzyme was diluted to a final concentration of 0.115 ng/μL using 50 mM Tris HCl (pH 7.5), 1 mM MgCl2 and 2 mM DTT. […] Arbutin formation was quantitated by HPLC analysis as follows: 10 μL of analyte were separated on a Nova-Pak® C18 column (60 Å pore size, […]) using a gradient from 2% acetonitrile, 1.5% phosphoric acid (solvent A) to 48% acetonitrile, 1.5% phosphoric acid (solvent B). The following solvent gradient is applied: 0–5 min 100% solvent A; 5–20 min linear gradient of 0–100% solvent B; 21–25 min 100% solvent A. Arbutin was detected at 221 nm absorbance wavelength and quantitated using calibration curves generated with a commercially available standard of arbutin.
The data was fitted to the Michaelis-Menten equation. […] In this plot, an estimate of the Km is provided as the slope of the line representing the linear regression curve through the points and the Vmax by the intercept of the regression curve with the y axis.
as §1

arbutin synthase [4] = biological target: T2, arbutin synthase; settings: 50° C., 1 mM hydroquinone; cited from earlier work
Oc1ccc(O)cc1 = experiment: purified protein, by the assay type; settings: pH 7.5; 37.0 °C
O=C(O)c1ccc(O)cc1 = experiment: purified protein, by the assay type; settings: other: pHBA 0.2 to 400 μM, fitted to Michaelis-Menten equation; 25.0 °C

## O=C(O)c1cc(O)ccc1O [2,5-dihydroxybenzoic acid]
UGT72B1 [1]
  specific activity: 11.72 pkat/μg protein

## Oc1ccc(O)cc1 [hydroquinone, 1,4-dihydroxybenzene]
Arbutin synthase [2]
  turnover number: 1.4 s⁻¹
UGT72B1 [3]
  apparent Km: ~0.3 µM
UGT72B1 [3]; Michaelis-Menten plot, FIG. 5
  hydroquinone concentration giving significant substrate inhibition: greater than 100 μM
UGT72B1 [3]; compared with Lim et al. values
  Vmax with hydroquinone relative to Vmax with benzoic acid substrates: ~68 fold
UGT72B1 [3]; hydroquinone as substrate, 20 mM UDPG, 37° C., Hofstee plot
  apparent Vmax: ~796 pmol/sec/1 g
UGT72B1 [3]; hydroquinone as substrate, 37° C.
  turnover number (Kcat): 42 s⁻¹
Arbutin synthase [4]
  Vmax: 26.32 pkat/μg

## UGT72B1 (Arabidopsis thaliana; E284K/I310V/T253S)
Oc1ccc(O)cc1
  Km: 0.3 µM

## pHBA 1-hydroxylase (Lodderomyces parapsilosis CDC317)
O=C(O)c1ccc(O)cc1
  Km: 0.31 µM
  Vmax: 6.4 µmol/min/mg
